From patent US20200383985A1, “Inhibitors of Protease Activated Receptor-2” (Endosome Therapeutics, Inc., priority 2017, published 2020)

Legend:
PKC and ERK activity = experiment: FRET assays of compartmentalized PKC and ERK in DRG neurons; assay type: cell-based, rat
Procedure: To determine whether trypsin causes PAR2-dependent activation of PKC and ERK, which respectively mediate initial and persistent trypsin-induced hyperexcitability of nociceptors, genetically-encoded Förster Resonance Energy Transfer (FRET) biosensors were expressed in neurons. […] Trypsin (10 or 100 nM) activated PKC at the plasma membrane but not in the cytosol (FIG. 4E-G), and activated ERK in the cytosol and nucleus (FIG. 4H-J). The PAR2 antagonist I-343 (10 μM) inhibited trypsin-induced activation of PKC and ERK, whereas the PAR1 antagonist SCH530348 (100 nM) had no effect (FIG. 4F, I). At the end of experiments, neurons were challenged with the positive controls phorbol 12,13-dibutyrate (PDBu) for EKAR biosensors or PDBu plus phosphatase inhibitor mixture-2 for CKAR biosensors, to ensure that the response of the biosensor was not saturated.
DRG were collected from C57BL/6 mice and Sprague-Dawley rats (all levels). DRG were incubated with collagenase IV (2 mg/ml) and dispase II (1 mg/ml) for 30 min (mice) and 45 min (rats) at 37° C. DRG were dispersed by trituration with a fire-polished Pasteur pipette. Dissociated neurons were transfected with mPAR2-GFP (1 μg), the FRET biosensors CytoEKAR, NucEKAR, pmCKAR or CytoCKAR (all […]), or with the BRET biosensors PAR2-RLuc8 (125 ng) and βARR2-FYP (475 ng) using the Lonza 4D-Nucleofector X unit according to the manufacturer's instructions. Neurons were plated on laminin- (0.004 mg/ml) and poly-L-Lysine- (0.1 mg/ml) coated glass coverslips for confocal microscopy, on ViewPlate-96 plates (PerkinElmer) for FRET assays, or on CulturPlates (PerkinElmer) for BRET assays. Neurons were maintained in Dulbecco's modified Eagle medium (DMEM) containing 10% fetal bovine serum (FBS), antibiotic-antimitotic, and N1 supplement for 48 h before study.
Rat DRG neurons expressing FRET biosensors were serum-restricted (0.5% FBS overnight), and equilibrated in HBSS-HEPES (10 mM HEPES, pH 7.4, 30 min, 37° C.). FRET was analyzed using an Operetta CLS High-Content Imaging System (PerkinElmer) or an INCell Analyzer 2000 G E Healthcare Life Sciences). For CFP/YFP emission ratio analysis, cells were sequentially excited using a CFP filter (410-430 nm) with emission measured using YFP (520-560 nm) and CFP (460-500 nm) filters. Cells were imaged at 1 or 2 min intervals. Baseline was measured, neurons were challenged with trypsin (10 or 100 nM) or vehicle, and responses recorded for a further 30 min. Neurons were then challenged with phorbol 12,13-dibutyrate (PDBu, 200 nM, 10 min) for EKAR biosensors or PDBu (200 nM) and phosphatase inhibitor cocktail-2 (SigmaAldrich, 10 min) for CKAR biosensors. Data were analyzed using Harmony 4.1 or Image J 1.51 software. Images taken were aligned, cells were selected based on diameter, and fluorescence intensity was calculated for both FRET and CFP channels. Background intensity was subtracted and the FRET ratio was determined as the change in the FRET/donor (EKAR) or donor/FRET (CKAR) emission ratio relative to the baseline for each cell (F/Fo). Cells with >5% changes in F/F0 after PDBu stimulation were selected for analysis. Neurons were incubated with I-343 (10 μM), SCH530348 (100 nM) or vehicle (30 min, 37° C. preincubation and inclusion throughout).

mice = experiment: Paw inflammation after intraplantar injection (paw thickness, neutrophil infiltration); assay type: in vivo, mouse; settings: WT mice; for paw thickness after intraplantar protease: calipers
From the text: Proteases may induce pain by activating PAR2 on nociceptors or other cell types. To determine the contribution of PAR2 on nociceptors, mice were bred expressing PAR2 flanked by LoxP sites (Par2^lox/lox) with mice expressing Cre recombinase targeted to nociceptors using the NaV1.8 promoter (Scn10a) (Stirling L. C. et al., Pain 2005, 113(1-2): 27-36). Par2-NaV1.8 mice lacked immunoreactive PAR2 in NaV1.8-positive nociceptors (FIG. 1A). Whereas 31% (20 of 65) of small-diameter (<25 μm) DRG neurons from WT mice responded to trypsin (100 nM) with increased [Ca^2+]i, only 6% (3 of 51) of neurons from Par2-NaV1.8 mice responded (FIGS. 1B, 11A, and 11B). Nociception was assessed by measuring withdrawal responses to stimulation of the plantar surface of the hindpaw with von Frey filaments. […] In Par2-NaV1.8 mice, the initial responses were maintained, but responses after 120 min were diminished. […] Trypsin-induced inflammation was markedly diminished in Par2-NaV1.8 mice.
Mice were acclimatized to the experimental apparatus, room and investigator for 1-2 h on 2 successive days before studies. Investigators were blinded to the test agents. Mice were sedated (5% isoflurane) for intraplantar injections. Dy4a, Dy4 inact, PS2, PS2 inact (all 50 μM) or vehicle (0.2% DMSO in 0.9% NaCl) (10 μl) was injected into the left hindpaw. After 30 min, trypsin (10 or 80 nM), CS (2.5 or 5 μM) or NE (1.2 or 3.9 μM) (all 10 μl) was injected into the same hindpaw. Mechanical nociceptive responses were evaluated by examining paw withdrawal to stimulation of the plantar surface of the hind-paw with calibrated von Frey filaments. von Frey scores were measured in triplicate to establish a baseline for each animal on the day before experiments, and were then measured for up to 4 h after protease administration. To assess edema, paw thickness was measured at the site of injection between the plantar and the dorsal surfaces of the paw using digital calipers. […] Ly6G/Ly6c was detected with goat anti-rat horseradish peroxidase conjugated multimer incubated for 16 min.

[1] = trypsin 10 or 100 nM, rat DRG neurons

Molecule | trypsin-induced activation of PKC and ERK (PKC and ERK activity; I-343 10 μM, SCH530348 100 nM) | paw thickness after intraplantar protease (mice) | neutrophil influx into the paw (mice; after 4 h) | ERK activity in the cytosol and nucleus (PKC and ERK activity; [1]) | PKC activity at the plasma membrane (PKC and ERK activity; [1]) | PKC activity in the cytosol (PKC and ERK activity; [1])
Cc1nc(C(=O)N2CCN(C(=O)c3cn4nc(-c5ccc(F)cc5)cc(C(C)(C)C)c4n3)C(C)(C)C2)n[nH]1 [Compound I-343, (8-(tert-butyl)-6-(4-fluorophenyl)imidazo[1,2-b]pyridazin-2-yl)(2,2-dimethyl-4-(5-methyl-1H-1,2,4-triazole-3-carbonyl)piperazin-1-yl)methanone] | inhibited | – | – | – | – | –
NE: protease (elastase) activating PAR2 by biased mechanisms | – | increased paw thickness | – | – | – | –
trypsin | – | increased paw thickness | stimulated an influx of neutrophils | activated | activated | not
